Data published in article PMC11131246, “Molecular determinants for brain targeting by peptides: a meta-analysis approach with experimental validation” (Fluids and Barriers of the CNS, 2024).
Blank lines part the entries; values can stand above or below the molecule they belong to. Residues, ends and D or L forms follow the SMILES beside them. *: point of attachment. NODAGA = O=C(O)CN1CCN(CC(=O)O)CCN(C(CCC(=O)*)C(=O)O)CC1; CF = 5(6)-carboxyfluorescein

Key:
[1] = Analytical RP-HPLC retention time (used as indication of hydrophobicity); type: physicochemical; conditions: analytical reverse phase HPLC, UV chromatogram; free and CF-labelled peptides
[2] = Biodistribution of 67Ga-radiolabeled peptides; set-up: species or system mouse; conditions: female, CD1, mouse, in vivo, iv, 100 uCi, total radioactivity, Tissue distribution
Protocol: All animal experiments were performed in compliance with national and EU legislation for good practices on laboratory animal science. The animals were housed in a temperature and humidity-controlled environment with a 12 h light/12 h dark schedule. Biodistribution of radiolabeled peptides was performed on 7 weeks old CD1 female mice.
Animals were intravenously injected into the tail vein with 100 µL of a 25 µM saline solution of the ^67Ga-peptide with a radioactivity around 100 µCi. The mice were euthanized by cervical dislocation at 2 min and 1 h after injection. The dose administered and the radioactivity in the euthanized animals was measured using a dose calibrator (Carpintec CRC-15W, Ramsey, USA). The difference between the radioactivity in the injected and the euthanized animals was assumed to be due to excretion. Brain and tissues of interest without previous perfusion were dissected, washed, and weighed, and their radioactivity was measured using a γ counter (Hidex AMG, Hidex, Turku, Finland). The uptake in the brain and tissues of interest was calculated and expressed as a percentage of injected radioactivity dose per gram of tissue (% ID/g).

Molecule: CF-RPKPQQFFGLM-amide [CF-SPA, 5(6)-carboxyfluorescein-labelled SPA]
HPLC tR [1]: 9.25 min

Molecule: CF-KWCFRVCYRGICYRRCR-amide [CF-TI, 5(6)-carboxyfluorescein-labelled TI]
HPLC tR [1]: 8.11 min

Molecule: CF-YKEATSTFTNITYRGT-amide [CF-Peptide b3-1, 5(6)-carboxyfluorescein-labelled Peptide b3-1]
HPLC tR [1]: 8.63 min

Molecule: CF-KYKGAIIGNIK-amide [CF-A, 5(6)-carboxyfluorescein-labelled A]
HPLC tR [1]: 7.05 min

Molecule: CF-LKTLTETLKELTKTLTEL-amide [CF-KLA13, 5(6)-carboxyfluorescein-labelled KLA13]
HPLC tR [1]: 13.51 min

Molecule: CF-KKKKQPPKPKKPKTQEKKKKQPPKPKR-amide [CF-P1746c27, 5(6)-carboxyfluorescein-labelled P1746c27]
HPLC tR [1]: 4.23 min

Molecule: CF-HIQLSPFSQSWR-amide [CF-HAP-2, 5(6)-carboxyfluorescein-labelled HAP-2]
HPLC tR [1]: 9.50 min

Molecule: CF-EEGRLYMRYYSPTTRRYG-amide [CF-CPP(II), 5(6)-carboxyfluorescein-labelled CPP(II)]
HPLC tR [1]: 7.95 min

Molecule: CF-APWHLSSQYSRT-amide ({CF}-APWHLSSQYSRT-NH2) [CF-CTP, 5(6)-carboxyfluorescein-labelled CTP]
HPLC tR [1]: 8.45 min

Other lines, results leading:

tissue uptake at 2 min ([2]; Blood): 12.6 ± 2.1 %ID/g
tissue uptake at 1 h ([2]; Blood): 0.5 ± 0.3 %ID/g
tissue uptake at 2 min ([2]; Bone): 3.4 ± 0.3 %ID/g
tissue uptake at 1 h ([2]; Bone): 0.3 ± 0.1 %ID/g
tissue uptake at 2 min ([2]; Brain (brain uptake)): 0.66 ± 0.16 %ID/g
tissue uptake at 1 h ([2]; Brain (brain uptake)): 0.04 ± 0.02 %ID/g
tissue uptake at 2 min ([2]; Heart): 3.4 ± 1 %ID/g
tissue uptake at 1 h ([2]; Heart): 0.3 ± 0.1 %ID/g
tissue uptake at 2 min ([2]; Intestine): 1.7 ± 0.3 %ID/g
tissue uptake at 1 h ([2]; Intestine): 0.2 ± 0.1 %ID/g
tissue uptake at 2 min ([2]; Kidney): 33.8 ± 3.8 %ID/g
tissue uptake at 1 h ([2]; Kidney): 2.4 ± 1.8 %ID/g
tissue uptake at 2 min ([2]; Liver): 4.1 ± 0.8 %ID/g
tissue uptake at 1 h ([2]; Liver): 0.3 ± 0.2 %ID/g
tissue uptake at 2 min ([2]; Lung): 6.1 ± 0.7 %ID/g
tissue uptake at 1 h ([2]; Lung): 2.5 ± 0.3 %ID/g
tissue uptake at 2 min ([2]; Muscle): 2.4 ± 0.2 %ID/g
tissue uptake at 1 h ([2]; Muscle): 0.3 ± 0.1 %ID/g
tissue uptake at 2 min ([2]; Spleen): 2 ± 0.2 %ID/g
tissue uptake at 1 h ([2]; Spleen): 0.2 ± 0.1 %ID/g
tissue uptake at 2 min ([2]; Stomach): 1.4 ± 0.5 %ID/g
tissue uptake at 1 h ([2]; Stomach): 0.1 %ID/g
Molecule: CC[C@H](C)[C@H](NC(=O)[C@H](C)NC(=O)CNC(=O)[C@H](CCCCN)NC(=O)[C@H](Cc1ccc(O)cc1)NC(=O)[C@H](CCCCN)NC(=O)CCC(C(=O)O)N1CCN(CC(=O)O)CCN(CC(=O)O)CC1)C(=O)N[C@H](C(=O)NCC(=O)N[C@@H](CC(N)=O)C(=O)N[C@H](C(=O)N[C@@H](CCCCN)C(N)=O)[C@@H](C)CC)[C@@H](C)CC (some centres unmarked) [67Ga-BBBpS_1, metal not drawn] ({NODAGA}-KYKGAIIGNIK-NH2)

HPLC tR [1]: 7.62 min
Molecule: CF-KYRSGAITIGY-amide [CF-B, 5(6)-carboxyfluorescein-labelled B]

tissue uptake at 2 min ([2]; Blood): 11.6 ± 1.5 %ID/g
tissue uptake at 1 h ([2]; Blood): 0.8 ± 0.4 %ID/g
tissue uptake at 2 min ([2]; Bone): 3.4 ± 0.3 %ID/g
tissue uptake at 1 h ([2]; Bone): 0.5 ± 0.1 %ID/g
tissue uptake at 2 min ([2]; Brain (brain uptake)): 0.61 ± 0.11 %ID/g
tissue uptake at 1 h ([2]; Brain (brain uptake)): 0.05 ± 0.01 %ID/g
tissue uptake at 2 min ([2]; Heart): 3.3 ± 0.1 %ID/g
tissue uptake at 1 h ([2]; Heart): 0.3 %ID/g
tissue uptake at 2 min ([2]; Intestine): 1.9 ± 0.2 %ID/g
tissue uptake at 1 h ([2]; Intestine): 0.2 %ID/g
tissue uptake at 2 min ([2]; Kidney): 30 ± 3.7 %ID/g
tissue uptake at 1 h ([2]; Kidney): 3.1 ± 0.3 %ID/g
tissue uptake at 2 min ([2]; Liver): 4.7 ± 0.4 %ID/g
tissue uptake at 1 h ([2]; Liver): 2.6 ± 0.3 %ID/g
tissue uptake at 2 min ([2]; Lung): 5.4 ± 0.6 %ID/g
tissue uptake at 1 h ([2]; Lung): 0.7 ± 0.1 %ID/g
tissue uptake at 2 min ([2]; Muscle): 2.6 ± 0.3 %ID/g
tissue uptake at 1 h ([2]; Muscle): 0.2 ± 0.1 %ID/g
tissue uptake at 2 min ([2]; Spleen): 2.6 ± 0.3 %ID/g
tissue uptake at 1 h ([2]; Spleen): 0.9 ± 0.2 %ID/g
tissue uptake at 2 min ([2]; Stomach): 1.5 ± 0.2 %ID/g
tissue uptake at 1 h ([2]; Stomach): 0.3 ± 0.1 %ID/g
Molecule: CC(C)C[C@H](NC(=O)[C@H](Cc1c[nH]c2ccccc12)NC(=O)[C@H](Cc1ccccc1)NC(=O)[C@H](CCC(N)=O)NC(=O)[C@H](C)NC(=O)[C@H](CO)NC(=O)[C@H](CC(=O)O)NC(=O)[C@@H]1CCCN1C(=O)[C@H](CCCNC(=N)N)NC(=O)[C@H](CC(N)=O)NC(=O)CCC(C(=O)O)N1CCN(CC(=O)O)CCN(CC(=O)O)CC1)C(=O)N[C@@H](Cc1c[nH]cn1)C(=O)N[C@@H](Cc1c[nH]cn1)C(N)=O (some centres unmarked) [67Ga-BBBpS_9, metal not drawn] ({NODAGA}-NRPDSAQFWLHH-NH2)

HPLC tR [1]: 8.79 min
Molecule: CF-YTQDFNKFHTFPQTAIGVGAP-amide [CF-hCR(12–32), 5(6)-carboxyfluorescein-labelled hCR(12–32)]

tissue uptake at 2 min ([2]; Blood): 13.4 ± 3.8 %ID/g
tissue uptake at 1 h ([2]; Blood): 1.4 ± 0.9 %ID/g
tissue uptake at 2 min ([2]; Bone): 3.1 ± 0.1 %ID/g
tissue uptake at 1 h ([2]; Bone): 0.8 ± 0.5 %ID/g
tissue uptake at 2 min ([2]; Brain (brain uptake)): 0.52 ± 0.23 %ID/g
tissue uptake at 1 h ([2]; Brain (brain uptake)): 0.09 ± 0.03 %ID/g
tissue uptake at 2 min ([2]; Heart): 3.1 ± 0.7 %ID/g
tissue uptake at 1 h ([2]; Heart): 0.8 ± 0.1 %ID/g
tissue uptake at 2 min ([2]; Intestine): 1.5 ± 0.2 %ID/g
tissue uptake at 1 h ([2]; Intestine): 0.4 %ID/g
tissue uptake at 2 min ([2]; Kidney): 18.1 ± 2.1 %ID/g
tissue uptake at 1 h ([2]; Kidney): 1.4 ± 0.6 %ID/g
tissue uptake at 2 min ([2]; Liver): 3.5 ± 1.2 %ID/g
tissue uptake at 1 h ([2]; Liver): 0.6 ± 0.2 %ID/g
tissue uptake at 2 min ([2]; Lung): 6 ± 1.2 %ID/g
tissue uptake at 1 h ([2]; Lung): 1.7 ± 0.4 %ID/g
tissue uptake at 2 min ([2]; Muscle): 2 ± 0.4 %ID/g
tissue uptake at 1 h ([2]; Muscle): 0.7 ± 0.1 %ID/g
tissue uptake at 2 min ([2]; Spleen): 1.9 ± 0.6 %ID/g
tissue uptake at 1 h ([2]; Spleen): 0.5 ± 0.2 %ID/g
tissue uptake at 2 min ([2]; Stomach): 1 ± 0.1 %ID/g
tissue uptake at 1 h ([2]; Stomach): 0.2 ± 0.1 %ID/g
Molecule: CC[C@H](C)[C@H](NC(=O)[C@H](C)NC(=O)CNC(=O)[C@H](CO)NC(=O)[C@H](CCCNC(=N)N)NC(=O)[C@H](Cc1ccc(O)cc1)NC(=O)[C@H](CCCCN)NC(=O)CCC(C(=O)O)N1CCN(CC(=O)O)CCN(CC(=O)O)CC1)C(=O)N[C@H](C(=O)N[C@H](C(=O)NCC(=O)N[C@@H](Cc1ccc(O)cc1)C(N)=O)[C@@H](C)CC)[C@@H](C)O (some centres unmarked) [67Ga-BBBpS_2, metal not drawn] ({NODAGA}-KYRSGAITIGY-NH2)

HPLC tR [1]: 7.89 min
Molecule: CF-YDEEGGGE-amide [CF-YDEGE, 5(6)-carboxyfluorescein-labelled YDEGE]

HPLC tR [1]: 8.01 min
Molecule: CF-NRPDSAQFWLHH-amide [CF-Peptide third, 5(6)-carboxyfluorescein-labelled Peptide third]

tissue uptake at 2 min ([2]; Blood): 10.7 ± 2.1 %ID/g
tissue uptake at 1 h ([2]; Blood): 1.2 ± 0.3 %ID/g
tissue uptake at 2 min ([2]; Bone): 3.8 ± 0.5 %ID/g
tissue uptake at 1 h ([2]; Bone): 0.6 ± 0.4 %ID/g
tissue uptake at 2 min ([2]; Brain (brain uptake)): 0.74 ± 0.01 %ID/g
tissue uptake at 1 h ([2]; Brain (brain uptake)): 0.05 ± 0.01 %ID/g
tissue uptake at 2 min ([2]; Heart): 3.8 ± 0.8 %ID/g
tissue uptake at 1 h ([2]; Heart): 0.5 %ID/g
tissue uptake at 2 min ([2]; Intestine): 2.2 ± 0.2 %ID/g
tissue uptake at 1 h ([2]; Intestine): 0.4 ± 0.2 %ID/g
tissue uptake at 2 min ([2]; Kidney): 22 ± 3.6 %ID/g
tissue uptake at 1 h ([2]; Kidney): 1.1 ± 0.6 %ID/g
tissue uptake at 2 min ([2]; Liver): 5.2 ± 1.1 %ID/g
tissue uptake at 1 h ([2]; Liver): 1 ± 0.4 %ID/g
tissue uptake at 2 min ([2]; Lung): 7.8 ± 2.8 %ID/g
tissue uptake at 1 h ([2]; Lung): 1.2 ± 0.2 %ID/g
tissue uptake at 2 min ([2]; Muscle): 3.1 ± 0.8 %ID/g
tissue uptake at 1 h ([2]; Muscle): 0.5 ± 0.2 %ID/g
tissue uptake at 2 min ([2]; Spleen): 2.2 ± 0.1 %ID/g
tissue uptake at 1 h ([2]; Spleen): 0.3 ± 0.1 %ID/g
tissue uptake at 2 min ([2]; Stomach): 2.6 %ID/g
tissue uptake at 1 h ([2]; Stomach): 0.3 ± 0.4 %ID/g
Molecule: CC[C@H](C)[C@H](NC(=O)[C@H](Cc1c[nH]cn1)NC(=O)CCC(C(=O)O)N1CCN(CC(=O)O)CCN(CC(=O)O)CC1)C(=O)N[C@@H](CCC(N)=O)C(=O)N[C@@H](CC(C)C)C(=O)N[C@@H](CO)C(=O)N1CCC[C@H]1C(=O)N[C@@H](Cc1ccccc1)C(=O)N[C@@H](CO)C(=O)N[C@@H](CCC(N)=O)C(=O)N[C@@H](CO)C(=O)N[C@@H](Cc1c[nH]c2ccccc12)C(=O)N[C@@H](CCCNC(=N)N)C(N)=O (some centres unmarked) [67Ga-BBBpS_5, metal not drawn] ({NODAGA}-HIQLSPFSQSWR-NH2)
